# Source: article PMC11335189, “Revealing molecular determinants governing mambalgin-3 pharmacology at acid-sensing ion channel 1 variants” (Cellular and Molecular Life Sciences: CMLS, 2024)
# Positions of bridges follow the written chain, without caps; N, C: chain ends. No end group written: not given here.
# What was measured:
# [1] = molecular target: T1, rASIC1a E362R (Rattus norvegicus, UniProt P55926, E362R); assay: TEVC oocytes, rASIC1a E362R mutant; assay type: cell-based; conditions: conditioning pH 7.45, stimulating pH 6
# T1 construct: expressed in transfected cells; host or cells: Xenopus laevis oocytes (cRNA injection)
# T1 sequence (P55926 1-526 E362R): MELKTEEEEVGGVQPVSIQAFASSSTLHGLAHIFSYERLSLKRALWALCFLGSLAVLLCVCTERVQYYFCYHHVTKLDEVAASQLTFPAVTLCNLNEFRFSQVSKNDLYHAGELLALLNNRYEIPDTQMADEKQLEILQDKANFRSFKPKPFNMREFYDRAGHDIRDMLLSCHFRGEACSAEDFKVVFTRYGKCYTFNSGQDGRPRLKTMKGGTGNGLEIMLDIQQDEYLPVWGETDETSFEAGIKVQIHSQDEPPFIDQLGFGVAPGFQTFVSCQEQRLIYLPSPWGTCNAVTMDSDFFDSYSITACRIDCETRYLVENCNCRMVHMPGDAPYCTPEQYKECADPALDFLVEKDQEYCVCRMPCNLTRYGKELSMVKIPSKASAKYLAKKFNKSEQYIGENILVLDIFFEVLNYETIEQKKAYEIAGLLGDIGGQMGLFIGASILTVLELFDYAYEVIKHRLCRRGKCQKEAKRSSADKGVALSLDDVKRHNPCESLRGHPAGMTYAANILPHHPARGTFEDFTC
# Protocol: (§1) Two-electrode voltage-clamp (TEVC) experiments using Xenopus laevis oocytes were conducted as previously described. Briefly, oocytes were surgically removed from anaesthetised female frogs, then treated with collagenase (~ 1 mg/ml, Sigma type I) for 2 h under agitation at room temperature. cRNAs were synthesised using a mMessage mMachine T7 or SP6 transcription kit (Thermo Fisher Scientific Australia Pty Ltd, Scoresby, VIC, Australia) and injected into healthy stage V–VI oocytes at 0.2–20 ng per cell. […] Membrane currents were recorded 2–7 days after cRNA-injection under voltage-clamp at -60 mV (Axon Axoclamp 900 A, Molecular Devices, CA, USA) using two standard glass microelectrodes of 0.5–1 MΩ resistance when filled with 3 M KCl solution. […]
# (§2) Specific to this work, the standard protocol was for oocytes to be conditioned at pH 7.45 and channels stimulated every 60 s using a 5 s pH 5 or 6 application, unless stated otherwise. […] Activation curves were determined by conditioning oocytes at pH 8 (Fig. 2e − g; and Fig. 5a and b) or 7.45 (Fig. 6; and Supplementary Fig. 2d and c) for 55 s and applying low pH stimuli from 7.25 to 5.0 for 5 s. Steady-state desensitisation (SSD) was determined by applying conditioning solutions of pH values from 8 to 6 for 115 s prior to stimulation by a pH drop to 5 for 5 s. […] Control pH-dependence curves were determined in the absence of any Ma-3. […]
# [2] = molecular target: T2, rASIC1b C208Q (Rattus norvegicus, UniProt P55926, C208Q); assay: TEVC oocytes, rASIC1b C208Q mutant; assay type: cell-based
# T2 construct: expressed in transfected cells; host or cells: Xenopus laevis oocytes (cRNA injection)
# T2 sequence (P55926 1-559 isoform P55926-3 C208Q): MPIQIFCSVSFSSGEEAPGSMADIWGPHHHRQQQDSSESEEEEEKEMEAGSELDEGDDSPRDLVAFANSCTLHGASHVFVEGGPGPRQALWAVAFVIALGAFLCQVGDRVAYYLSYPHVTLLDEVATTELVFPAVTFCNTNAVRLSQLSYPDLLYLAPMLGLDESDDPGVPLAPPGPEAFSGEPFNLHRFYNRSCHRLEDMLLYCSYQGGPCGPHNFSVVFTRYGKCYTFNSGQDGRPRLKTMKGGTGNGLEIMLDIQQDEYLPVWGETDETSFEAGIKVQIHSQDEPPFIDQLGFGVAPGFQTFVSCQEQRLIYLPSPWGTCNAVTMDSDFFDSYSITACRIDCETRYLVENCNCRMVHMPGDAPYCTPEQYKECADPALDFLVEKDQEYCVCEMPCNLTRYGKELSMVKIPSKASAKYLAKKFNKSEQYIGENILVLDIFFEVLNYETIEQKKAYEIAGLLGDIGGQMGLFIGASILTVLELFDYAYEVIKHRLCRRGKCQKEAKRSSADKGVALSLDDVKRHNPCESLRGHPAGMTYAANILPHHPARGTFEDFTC
# Protocol: as §1, §2
substance,measurement,setting,value
"H-SLKCYQHGKVVTCHRDMKFCYHNIGMPFRNLKLILQGCSSSCSETENNKCCSTDRCNK (disulfide 4-20, 13-38, 42-50, 51-56 (inferred)) [Ma-3, mambalgin-3]",decrease in Ma-3 activity relative to wild-type rASIC1a,[1],~ 5 fold
same,pH50 of activation in presence of Ma-3,"[2]; 300 nM Ma-3, conditioning pH 7.45, Hill fit, n = 5–6",6.27
same,Hill slope (95% CI),"[2]; conditioning pH 7.45, pH 6 evoked currents, potentiation, 95% CI",1.26–2.01
